In article PMC6359713, “A Novel Dipeptidyl Peptidase IV Inhibitory Tea Peptide Improves Pancreatic β-Cell Function and Reduces α-Cell Proliferation in Streptozotocin-Induced Diabetic Mice” (International Journal of Molecular Sciences, 2019):
Entries after “also recorded” stand apart in the source; their conditions may differ.

How the values were obtained:
DPP-IV [1] = biological target: T1, DPP-IV (Homo sapiens, UniProt P27487); assay: DPP-IV inhibitory assay (Gly-Pro p-nitroanilide); type: biochemical; conditions: n = 3; for DPP-IV inhibition, comparison among peptides I-IV: 62.5-1500 μg/mL
T1 construct: purchased Sigma-Aldrich D4943-1VL; host or cells: baculovirus-infected Sf9 insect cells
T1 sequence (P27487 whole entry): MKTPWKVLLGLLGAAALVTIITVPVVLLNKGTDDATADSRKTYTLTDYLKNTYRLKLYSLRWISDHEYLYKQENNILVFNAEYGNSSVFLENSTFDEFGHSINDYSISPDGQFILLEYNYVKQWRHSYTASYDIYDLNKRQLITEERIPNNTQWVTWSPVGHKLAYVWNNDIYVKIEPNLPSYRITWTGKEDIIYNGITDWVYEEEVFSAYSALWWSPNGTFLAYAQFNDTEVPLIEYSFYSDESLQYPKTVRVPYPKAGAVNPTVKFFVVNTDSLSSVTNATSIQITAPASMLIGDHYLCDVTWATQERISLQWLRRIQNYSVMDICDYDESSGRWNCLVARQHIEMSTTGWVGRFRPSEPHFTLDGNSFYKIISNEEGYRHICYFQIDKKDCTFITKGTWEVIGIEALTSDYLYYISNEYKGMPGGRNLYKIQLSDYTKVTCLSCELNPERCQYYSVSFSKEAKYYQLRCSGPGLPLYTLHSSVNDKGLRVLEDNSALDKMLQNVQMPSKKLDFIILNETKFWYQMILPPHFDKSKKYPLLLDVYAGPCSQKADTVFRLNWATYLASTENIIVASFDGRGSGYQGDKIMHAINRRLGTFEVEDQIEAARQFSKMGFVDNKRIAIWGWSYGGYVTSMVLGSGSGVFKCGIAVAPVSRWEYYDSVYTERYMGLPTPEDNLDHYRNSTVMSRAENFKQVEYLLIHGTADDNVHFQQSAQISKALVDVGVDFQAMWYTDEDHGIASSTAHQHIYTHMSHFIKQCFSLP
Excerpt: The enzyme, human recombinant DPP-IV (Lot: D4943-1VL), expressed in baculovirus-infected S/9 cells, the substrate, Gly-Pro p-nitroanilide (Gly-Pro pNA; Lot: G0513), and streptozotocin (STZ; Lot: V900890) were purchased from Sigma-Aldrich (St. Louis, MO, USA). […] Other reagents, such as Folin–Ciocalteu (Lot: 73104861), gallic acid (Lot: XW01499171), and Coomassie Blue R-250 (Lot: 71011381) were purchased from Sinopharm Chemical Reagent Co., Ltd. (Shanghai, China). Lapsang souchon (LS), a typical Chinese black tea, was obtained from a tea market in Hangzhou.
The DPP-IV inhibitory activities of the substance after ultrafiltration and the peptides identified (synthesized by Chinese Peptide Company, Hangzhou, China; purity of 96–97%) were evaluated. The DPP-IV inhibition assay was performed as described by Velarde-Salcedo et al., with slight modifications. The assay was performed in 96-well microplates, and 100 μL of enzyme (final concentration 1.9 U/L) was preincubated with the samples (the concentrated ultra-filtrate mentioned above and the synthesized peptide, with concentrations from 62.5–1500 μg/mL) at 37 °C for 15 min prior to the initiation of the reaction, by adding 50 μL of Gly-Pro p-nitroanilide (final concentration 0.29 mM). The final volume of the reaction system was 200 μL, and the reaction was conducted in 100 mM Tris-HCl buffer (pH 7.6). The absorbance was obtained at 405 nm in a microplate reader (Synergy H1, BioTek Instruments Inc., Winooski, VT, USA), after incubation at 37 °C for 1 h.

DPP-IV [2] = biological target: T1, DPP-IV; assay: Enzyme kinetics, Lineweaver-Burk plot, mode of inhibition; type: biochemical; conditions: peptide II 0, 1.02 and 2.04 mM; Gly-Pro pNA 0.29-4.64 mM; Tris-HCl pH 7.6, 37 °C, 60 min, 405 nm
Protocol: The initial rate of hydrolysis of the substrate Gly-Pro p-nitroanilide by DPP-IV was measured using substrate concentrations of 0.29, 0.58, 1.16, 2.32, and 4.64 mM (final assay concentrations) in the absence (100 mM Tris-HCl buffer, pH 7.6) and presence of different concentrations of the peptide II (1.02 and 2.04 mM, respectively). The substrate (50 μL), with or without an inhibitor (50 μL), was pre-incubated at 37 °C for 15 min, and the reaction was started by the addition of 100 μL of the DPP-IV enzyme (final concentration: 1.9 U/L). The absorbance of the released p-nitroanilide was monitored at 37 °C and 405 nm for 60 min using a microplate reader (Synergy H1, BioTek Instruments Inc.). Lineweaver–Burk plots of DPP-IV activity in the absence and presence of peptide II were created to show the modes of inhibition.

[3] = HbA1c in STZ-induced hyperglycemic mice; type: in vivo, mouse (male ICR); conditions: gavage daily, 57 days
Protocol: (§1) Male ICR mice at the age of four weeks were obtained from the Laboratory Animal Center of Zhejiang University (Hangzhou, China) and housed under a 12 h light/dark cycle with free access to food and water. The animal protocol was approved by the Committee on the Ethics of Animal Experiments of Zhejiang University (Permit Number: SYXK 2018-0001, 3 January 2018), and all experiments were performed in accordance with Zhejiang University Laboratory Animal Center Guidelines and the Regulations for Laboratory Animals Care and Usage. The mice were divided into four groups: non-STZ, STZ, STZ plus sitagliptin, and STZ plus peptide II. The mice were injected with STZ (50 mg/kg) dissolved into sodium citrate buffer (pH 4.5) for three successive days to induce hyperglycemia. Every group contained 10 mice. […] The levels of HbA1c were measured using an automatic analyzer MQ-2000pt produced by Medconn Medical Technology Co. (Shanghai, China). Plasma insulin, glucagon, GLP-1, and DPP-IV concentrations were measured using a mouse ELISA kit (Shanghai Lengton Bioscience Co., Ltd., Shanghai, China).

[4] = Plasma glucagon in STZ-induced hyperglycemic mice; type: in vivo, mouse (male ICR); conditions: peptide II 400 mg/kg or sitagliptin 4 mg/kg, gavage daily, day 57, vs STZ control
Protocol: as §1

[5] = Plasma insulin in STZ-induced hyperglycemic mice; type: in vivo, mouse (male ICR); conditions: for Blood insulin level: peptide II 400 mg/kg (n = 7) or sitagliptin 4 mg/kg (n = 6), mouse ELISA, STZ control 9.79 ± 3.62 mU/L, mean ± SD
Protocol: as §1

[6] = Blood GLP-1 in STZ-induced hyperglycemic mice; type: in vivo, mouse (male ICR); conditions: gavage daily; for GLP-1 concentration vs STZ control, significance / GLP-1 concentration in blood: day 57; for GLP-1 concentration in blood: peptide II 400 mg/kg (n = 7) or sitagliptin 4 mg/kg (n = 6), mouse ELISA, STZ control 9.85 ± 1.96, normal control 15.52 ± 3.17 pmol/L, mean ± SD; for Increase in GLP-1 concentration vs STZ control: peptide II 400 mg/kg or sitagliptin 4 mg/kg, after 57 days
Protocol: as §1

pancreatic alpha-cells = assay: Islet alpha-cell (glucagon-positive) area in STZ-treated mice, immunohistochemistry; type: in vivo, mouse (male ICR); conditions: gavage daily; for Alpha-cell area / proliferation: peptide II 400 mg/kg (n = 7) or sitagliptin 4 mg/kg (n = 6), day 57, vs STZ control
Protocol: as §1, with “pancreases” for “levels of HbA1c”, “resected immediately after the mice were sacrificed and fixed in 4% (w/v) formaldehyde. The immunohistochemistry procedures were performed according to Y. Takeda et al.. The stained sections were observed by an inverted fluorescence microscopy (NIKON ECLIPSE TI-SR; Nikon Corporation, Tokyo, Japan), and digital images were collected” for “measured”, “Nikon imaging system (NIKON DS-U3).” for “an automatic analyzer MQ-2000pt produced by Medconn Medical Technology Co. (Shanghai, China). Plasma insulin, glucagon, GLP-1, and DPP-IV concentrations were measured using a mouse ELISA kit (Shanghai Lengton Bioscience Co., Ltd., Shanghai, China).”

pancreatic beta-cells = assay: Islet beta-cell (insulin-positive) area and function in STZ-treated mice, immunohistochemistry; type: in vivo, mouse (male ICR); conditions: gavage daily; for Beta-cell area: peptide II 400 mg/kg (n = 7) or sitagliptin 4 mg/kg (n = 6), day 57, insulin-positive area per islet area
Protocol: as §1, with “pancreases” for “levels of HbA1c”, “resected immediately after the mice were sacrificed and fixed in 4% (w/v) formaldehyde. The immunohistochemistry procedures were performed according to Y. Takeda et al.. The stained sections were observed by an inverted fluorescence microscopy (NIKON ECLIPSE TI-SR; Nikon Corporation, Tokyo, Japan), and digital images were collected” for “measured”, “Nikon imaging system (NIKON DS-U3).” for “an automatic analyzer MQ-2000pt produced by Medconn Medical Technology Co. (Shanghai, China). Plasma insulin, glucagon, GLP-1, and DPP-IV concentrations were measured using a mouse ELISA kit (Shanghai Lengton Bioscience Co., Ltd., Shanghai, China).”

## AGFAGDDAPR [Peptide II]
DPP-IV [1]; 1000 μg/mL synthesized peptide, Tris-HCl pH 7.6, 37 °C, preincubation 15 min, 1 h, 405 nm
  DPP-IV enzyme activity inhibited: ~50%
DPP-IV [1]
  DPP-IV inhibition, comparison among peptides I-IV: much higher inhibitory activity at both low and high concentrations; also recorded: the greatest DPP-IV inhibitory activity
DPP-IV [2]
  Mode of DPP-IV inhibition: competitive inhibitory mode
[3]; peptide II 400 mg/kg, n = 7
  HbA1c level vs STZ control: did not show a significant difference in HbA1c levels compared to STZ control animals
[4]
  Plasma glucagon levels: no amelioration of the glucagon levels
[5]; gavage daily, day 57
  Blood insulin level: 42.30 ± 12.64 mU/L
[5]; peptide II 400 mg/kg or sitagliptin 4 mg/kg, gavage daily, 57 days
  Increase of plasma insulin level vs STZ control: 4.3 fold
[5]; peptide II 400 mg/kg vs sitagliptin 4 mg/kg, day 57
  Insulin improvement compared with sitagliptin: improved the insulin levels more effectively than sitagliptin
[6]
  GLP-1 concentration vs STZ control, significance: significantly higher than that in STZ control
  GLP-1 concentration in blood: 19.22 ± 6.79 pmol/L
  Increase in GLP-1 concentration vs STZ control: 9.3 pmol/L
Pancreatic alpha-cells
  Alpha-cell area / proliferation: suppressed proliferation of pancreatic alpha-cells; also recorded: lower than that in the STZ control group, but not significantly
Pancreatic beta-cells
  Beta-cell area: not obvious
Pancreatic beta-cells; peptide II 400 mg/kg, 57 days
  Beta-cell proliferation / function: improved function of pancreatic beta-cells; also recorded: only slight proliferation

## IDESLR [Peptide III]
DPP-IV [1]; 1500 μg/mL, compared among peptides I-IV
  DPP-IV inhibition: the lowest activity
DPP-IV [1]; concentration below 1000 μg/mL
  DPP-IV inhibition: almost no inhibition

## IQDKEGIPPDQQR [IV]
DPP-IV [1]
  DPP-IV inhibition, comparison among peptides I-IV: surpassed by peptide II with increasing concentration

## N[C@@H](CC(=O)N1CCn2c(nnc2C(F)(F)F)C1)Cc1cc(F)c(F)cc1F [sitagliptin, reference compound]
[3]; sitagliptin 4 mg/kg, n = 6, STZ control 7.30 ± 0.70%, mean ± SD
  HbA1c level: 5.98 ± 1.63%
[4]
  Plasma glucagon levels: no amelioration of the glucagon levels
[5]; gavage daily, day 57
  Blood insulin level: 27.35 ± 5.65 mU/L
[6]
  GLP-1 concentration vs STZ control, significance: without any significant difference compared with the STZ control
  GLP-1 concentration in blood: 12.57 ± 3.38 pmol/L
  Increase in GLP-1 concentration vs STZ control: 2.7 pmol/L
Pancreatic alpha-cells
  Alpha-cell area / proliferation: suppressed
Pancreatic alpha-cells; sitagliptin 4 mg/kg, day 57, glucagon-positive area per islet area, n = 6
  Decrease of alpha-cell area vs STZ-treated mice: 37.8%
Pancreatic beta-cells
  Beta-cell area: not obvious

## QTDEYGNPPR [Peptide I]
DPP-IV [1]
  DPP-IV inhibition, comparison among peptides I-IV: lower than peptide IV, but higher than peptide III
